Reference: patent publication US5776957A, “Nornicotine enantiomers for use as a treatment for dopamine related conditions and disease states” (The University of Kentucky Research Foundation, priority 1996, dated 1998)
Entries after “also recorded” stand apart in the source; their conditions may differ.

Experiments:
[1] = Locomotor activity assay, acute and repeated treatment, S(-) nicotine challenge, saline challenge; assay type: in vivo, rat; conditions: for cumulated locomotor activity after saline challenge: S(-) nicotine 1 mg/kg group; for cumulated locomotor activity vs saline-control: S(-) nicotine 1 mg/kg
Experimental: (I mg/kg), norNIC (0.3-10 mg/kg) or R(+) norNIC (0.3-10 mg/kg) was administered peripherally (s.c., 8 injections once every 48 hrs) to groups of rats and locomotor activity was assessed for 50 min immediately after each injection.
In the present study, S(-) nicotine (1 mg/kg), R(+) nornicotine (1-10 mg/kg), S(-) nornicotine (1-10 mg/kg), or vehicle (saline) were administered s.c. to groups of rats (n=6) acutely or repeatedly (8 injections once every 48 hrs). Locomotor activity was measured during 50 min sessions immediately following drug or vehicle administration.
Male Sprague-Hawley rats (225-250 g) from Harlan Laboratories were housed two per cage with free access to food and water.
Activity was recorded automatically in a wooden test-chamber measuring 30×28×43 cm high. The chamber had white walls and a wire mesh floor over pine chip bedding. Two photobeams located 4.5 cm above the floor divided the chamber into four equal quadrants. Electromechanical equipment located in an adjacent room recorded photobeam interruptions automatically. A white noise generator provided an ambient 70 dB background noise in the test room in order to minimize extraneous sounds that might influence the animal's behavior in the test chamber. Rats were habituated to the chamber for 50 min on each of three consecutive days.
On the day immediately after the third habituation session, rats were randomly divided into groups (n=6/group) and were administered s.c. either S(-) nicotine (1 mg/kg), R(+) nornicotine (0.3, 1, 3 and 10 mg/kg), or vehicle (saline) to determine acute drug effects on locomotor activity. In a separate experiment, rats (n=6/group) were administered s.c. either S(-) nicotine (1 mg/kg), S(-) nornicotine (0.3, 1, 3 and 10 mg/kg), or vehicle (saline). To determine the effect of repeated drug administration on locomotor activity, drug or vehicle was administered respectively in the test-room once every 48 hrs for a total of 8 injections. After each injection, locomotor activity was recorded during a 50 min session (five 10-min blocks). On the ninth injection day (48 hrs following injection 8), each group of rats was administered a challenge dose (1 mg/kg) of S(-) nicotine in the test-room, and locomotor activity was determined immediately thereafter. On the tenth injection day, each group of rats was administered saline and locomotor activity recorded to determine potential conditioning effects of the repeated drug administration.
Post hoc analysis of pairwise comparisons was performed with Duncan's New Multiple Range test.

[2] = system: [3H]DA-preloaded rat striatal slices (nicotinic receptors); conditions: cited from earlier work
[3] = Amphetamine drug discrimination (substitution tests); assay type: in vivo, rat
Experimental: Rats were trained in on two-lever food-reinforced operant tasks to discriminate amphetamine (1 mg/kg) from saline. After discrimination training stabilized, test doses of amphetamine (0.0625-2.0 mg/kg), nicotine (0.1-1.0 mg/kg) or nornicotine (1-10 mg/kg) were assessed for their ability to substitute for the amphetamine training dose during brief test sessions in which food reinforcement was withheld.
Nine male Sprague-Hawley rats were obtained from Harlan Industries (Indianapolis, Ind.) and were caged individually with water continuously available. Food access was restricted in order to maintain body weights at approximately 80% of free-feeding weight. Prior to the start of the experiment, all rats received a single injection of amphetamine (1 mg.kg, IP) as part of an unrelated experiment. Apparatus Six operant chambers (ENV-001, Med Associates, St. Albans, Vt.) enclosed in a sound attenuating environment were used. Located in the bottom center of the front panel in each chamber was a 5×4.-cm opening to a recessed food tray. Two metal response levers were located on the front panel, one on each side of the food tray. The center of each lever was mounted 7.3 cm from the grid floor. A 28-Vcue light, 3 cm in diameter, was centered 6 cm above each lever. A personal computer, interfaced to the chamber with Med Associates equipment, controlled the experimental sessions and collected data.
The general procedures utilized to establish amphetamine discrimination were similar to those outlined previously (13). Briefly, rats were first given access to food pellets (45 mg sucrose pellet, Noyes Co., Lancaster, N.H.) dispensed noncontingently into the food tray with both levers present. One lever was then removed and the rat was shaped to depress the other lever for food reinforcement. Following this, rats received 15-min daily sessions in which the lever (left or right) available for food reinforcement was alternated daily. […] The start of each session was signaled by the onset of both cue lights mounted above the levers, and the termination of each session was signaled by the offset of these lights. This training phase was continued until the rat earned 20 reinforces on an FR25 schedule for two days.
Amphetamine discrimination training was conducted Monday through Friday. For this training, both levers were mounted in the chamber. Amphetamine (A; 1 mg/kg) or saline (S), was injected IP 15 min prior to the start of the session, with the order of injections being either AASS or SSAA. The left lever was designated as the amphetamine-correct lever for 4 rats, while the right lever was amphetamine -correct for 5 rats. On Monday, Wednesday and Friday, injection-appropriate responding was food-reinforcedon an FR25 schedule for the entire 15-min session. However, 2-min extinction periods were instituted at the beginning of sessions on Tuesday and Thursday (one amphetamine and one saline test per week) to assess the control of amphetamine (or saline) over responding. […] During the remaining 13 min of these sessions, contingent reinforcement for injection-appropriate responding was reinstated. This phase of training was continued until the rat completed the first FR25 on the correct lever for 10 consecutive sessions and also completed 80% or more responses on the injection-appropriate lever during 4 consecutive extinction periods.
The substitution phase was identical to the previously described amphetamine discrimination phase, except for the Friday session, which was decreased to a 4-min extinction session with no food available.

## CN1CCC[C@H]1c1cccnc1 [S(-) nicotine]
[1]; 8 injections once every 48 hrs, nicotine 1 mg/kg, R(+) 0.3-10 mg/kg, S(-) nornicotine 10 mg/kg
  behavioral sensitization after repeated administration: robust behavioral sensitization
[1]; 48 hrs after S(-) nicotine challenge
  conditioned response to repeated administration (saline challenge): did not contribute to the observed behavioral sensitization
[1]; R(+) experiment
  cumulated locomotor activity after saline challenge: 485 ± 41 number of photobeam interruptions/50 min session
[1]; S(-) experiment
  cumulated locomotor activity after saline challenge: 429 ± 34 number of photobeam interruptions/50 min session
[1]; acute S(-) nicotine 1 mg/kg, 20-40 min
  locomotor activity time course: did not alter activity
[1]; acute S(-) nicotine 1 mg/kg, first 10 min
  locomotor activity time course: significantly decreased activity
[1]; acute S(-) nicotine 1 mg/kg, last 10 min
  locomotor activity time course: significantly increased locomotor activity
[1]; acute
  cumulated locomotor activity vs saline-control: not different from the saline-control group; also recorded: did not alter
[1]; repeated S(-) nicotine group vs saline-control
  cumulated locomotor activity after S(-) nicotine challenge: significantly increased
[1]; repeated S(-) nicotine, first 20 min (R(+) experiment) vs saline-control
  time course after S(-) nicotine challenge: significantly increased
[1]; repeated S(-) nicotine, first 30 min (S(-) experiment)
  time course after S(-) nicotine challenge: significantly greater
[1]; repeated S(-) nicotine, majority of time course
  locomotor activity time course: significant increase in activity
[1]; repeated, 8 injections
  cumulated locomotor activity vs saline-control: significantly increased locomotor activity
[2]; Izenwasser et al. (1991), 10-min exposure
  plateau concentration of concentration-response curve: 0.1 µM
[2]; rat striatal slices, Sacaan et al. (1995), read-out: EC50 for NIC-evoked [3H]overflow
  EC50: 3.7 µM
[3]; 15 min
  total number of lever presses: significant decreases in total number of lever presses
[3]; 45 min
  plateau of dose-effect curve, amphetamine-appropriate responding: 50
  total number of lever presses: significant decrease in total number of lever presses
[3]; any dose, none of the rats reached
  amphetamine-correct responding reached by individual rats: < 80%
[3]; nicotine 1 mg/kg, 15 min
  amphetamine-appropriate responding: Approximately 50%
[3]; nicotine 1 mg/kg, 45 min
  amphetamine-appropriate responding (maximum): approximately 50%
  amphetamine-correct responses, individual rats: 31-59%
[3]; nicotine 0.1-1.0 mg/kg, nornicotine 1-10 mg/kg
  amphetamine-appropriate responding (partial substitution): approximately 50%
[3]; partial substitution for amphetamine
  relative potency, nicotine vs nornicotine: more potent than nornicotine
